Peptide text beside a SMILES is read from it.
What follows are molecules tested against T1, wild-type mouse C140 receptor (Mus musculus, UniProt P55086) (assay: 45Ca release by Xenopus oocytes expressing wild-type mouse C140 receptor). Conditions: Table 2; peptides at 100 μM; wild-type mouse C140 receptor in oocytes.
T1 construct: Native receptors were produced by cloning the coding region of the receptor gene; expressed in transfected cells; host or cells: Xenopus laevis oocytes injected with capped cRNA from pSG-5 C140
T1 sequence (P55086 32-399 limits assumed): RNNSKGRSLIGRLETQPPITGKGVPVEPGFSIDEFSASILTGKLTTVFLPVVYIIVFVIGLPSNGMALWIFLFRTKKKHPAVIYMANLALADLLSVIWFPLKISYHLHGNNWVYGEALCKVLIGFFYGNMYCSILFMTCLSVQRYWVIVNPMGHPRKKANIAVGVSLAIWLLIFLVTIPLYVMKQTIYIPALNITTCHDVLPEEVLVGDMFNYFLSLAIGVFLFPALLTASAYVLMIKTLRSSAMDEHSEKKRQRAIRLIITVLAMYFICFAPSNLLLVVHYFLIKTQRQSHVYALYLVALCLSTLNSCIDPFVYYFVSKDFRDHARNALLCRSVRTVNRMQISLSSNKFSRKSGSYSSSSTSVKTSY
Format: cell-based
Protocol: Agonist-induced increases in ^45 Ca release by oocytes expressing cRNA encoding C140 receptor or other recombinant cells producing C140 receptor are assessed by published techniques (Williams, J. A., et al., Proc Natl Acad Sci USA (1988) 85:4939-4943). Briefly, intracellular calcium pools are labeled by incubating groups of 30 oocytes in 300 μl calcium-free modified Barth's solution (MBSH) containing 50 μCi ^45 CaCl2 (10-40 mCi/mg Ca; Amersham) for 4 hours at RT. The labeled oocytes or cells are washed, then incubated in MBSH II without antibiotics for 90 minutes. Groups of 5 oocytes are selected and placed in individual wells in a 24-well tissue culture plate (Falcon 3047) containing 0.5 ml/well MBSH II without antibiotics. This medium is removed and replaced with fresh medium every 10 minutes; the harvested medium is analyzed by scintillation counting to determine ^45 Ca released by the oocytes during each 10-minute incubation. The 10-minute incubations are continued until a stable baseline of ^45 Ca release per unit time is achieved. Two additional 10-minute collections are obtained, then test medium including agonist is added and agonist-induced ^45 Ca release determined.
Oocytes from Xenopus laevis were harvested and prepared using published techniques (Coleman, A., in Hames, B. D., and Higgins, S. J., eds, Transcription and Translation: A Practical Approach, IRL Press, pp. 271-302; Williams, J. A., et al. Proc Natl Acad Sci USA (1988) 85:4939-4943]. To remove follicular cells, oocytes were incubated for 1.5 h with shaking in calcium-free Barth's containing 2 mg/ml each of collagenase 1A and hyaluronidase 1S. The oocytes were then washed five times in regular Barth's and incubated at 18° C. in Barth's medium containing 100 U/ml penicillin, 100 μg/ml streptomycin, and 2.5 mM sodium pyruvate. Stage V oocytes were selected and injected with 30 nl of cRNA (0.33 μg/μl water) or water alone, and then incubated with 0.25 ml of medium in groups of four/well in a 96-well culture plate. After 36 hours the oocytes were incubated with ^45 Ca (250 μCi/ml). After 12 h incubation the oocytes were washed and 0.2 ml of medium added and replaced every five minutes. The harvested medium was analyzed by scintillation counting. After five replacements to determine the baseline release of ^45 Ca, test medium with the agonist, e.g. SLIGRL (SEQ ID NO: 23), was added and the evoked ^45 Ca-release determined.
Oocytes were injected with capped cRNA (ca 10 ng) encoding wild-type mouse C140 receptor (WT) or either of the three mutant receptors 35Pro, 35Arg and 35His. After 36 hours, cRNA-injected and control water-injected, oocytes were loaded with ^45 Ca, and 12 hours thereafter peptide or trypsin-induced ^45 Ca release were determined as described above. The peptide SLIGRL (SEQ ID NO: 23) was added at 100 μM, and trypsin at 300 pM. The stimulation with the peptide was done on the same group of oocytes after the stimulation with trypsin. The data shown in Table 1 represent the mean of three replicate determinations, and denotes the increase compared to oocytes injected with water.
Various peptides were tested at 100 μM in the assay above using wild-type mouse C140 receptor, expressed in oocytes.

SMILES	Fold increase in 45Ca [fold]
CC(C)C[C@H](NC(=O)[C@H](Cc1ccccc1)NC(=O)[C@H](Cc1ccccc1)NC(=O)[C@@H](N)CO)C(=O)N[C@@H](CCCNC(=N)N)C(=O)N[C@@H](Cc1c[nH]c2ccccc12)C(=O)O [SFFLRW, reference compound] (H-SFFLRW-OH)	1.7
CC[C@H](C)[C@H](NC(=O)[C@H](C)NC(=O)[C@@H](N)CO)C(=O)NCC(=O)N[C@@H](CCCNC(=N)N)C(=O)N[C@@H](CC(C)C)C(=O)O [SAIGRL] (H-SAIGRL-OH)	0
CC[C@H](C)[C@H](NC(=O)[C@H](CC(C)C)NC(=O)[C@@H](N)CO)C(=O)NCC(=O)N[C@@H](CCCNC(=N)N)C(=O)N[C@@H](C)C(=O)O [SLIGRA] (H-SLIGRA-OH)	8.5
CC(C)C[C@H](NC(=O)[C@H](CCCNC(=N)N)NC(=O)CNC(=O)[C@H](C)NC(=O)[C@H](CC(C)C)NC(=O)[C@@H](N)CO)C(=O)O [SLAGRL] (H-SLAGRL-OH)	0
CC[C@H](C)[C@H](NC(=O)[C@H](CC(C)C)NC(=O)[C@H](C)N)C(=O)NCC(=O)N[C@@H](CCCNC(=N)N)C(=O)N[C@@H](CC(C)C)C(=O)O [ALIGRL] (H-ALIGRL-OH)	1.3
CC[C@H](C)[C@H](NC(=O)[C@H](CC(C)C)NC(=O)[C@@H](N)CO)C(=O)N[C@@H](C)C(=O)N[C@@H](CCCNC(=N)N)C(=O)N[C@@H](CC(C)C)C(=O)O [SLIARL] (H-SLIARL-OH)	4.3
CC[C@H](C)[C@H](NC(=O)[C@H](CC(C)C)NC(=O)[C@@H](N)CO)C(=O)NCC(=O)N[C@@H](C)C(=O)N[C@@H](CC(C)C)C(=O)O [SLIGAL] (H-SLIGAL-OH)	0

Reference: US6043212A, “Recombinant C140 receptor, its agonists and antagonists, and nucleic acids encoding the receptor” (COR Therapeutics, Inc., priority 1995, dated 2000)
